Like-named read-outs stand apart in the source and are kept apart here.
Experiments:
Type in all cases: cell-based
[1] = test system: K-562; experiment: NCI60 five-dose screen; conditions: Homo sapiens, K562
[2] = test system: HOP-62; experiment: NCI60 five-dose screen; conditions: Homo sapiens, HOP-62
[3] = test system: NCI-H23; experiment: NCI60 five-dose screen; conditions: Homo sapiens, NCI-H23
[4] = test system: NCI-H322M; experiment: NCI60 five-dose screen; conditions: Homo sapiens
[5] = test system: NCI-H460; experiment: NCI60 five-dose screen; conditions: Homo sapiens, NCI-H460
[6] = test system: NCI-H522; experiment: NCI60 five-dose screen; conditions: Homo sapiens, NCI-H522
[7] = test system: COLO 205; experiment: NCI60 five-dose screen; conditions: Homo sapiens, COLO 205
[8] = test system: HCT-116; experiment: NCI60 five-dose screen; conditions: Homo sapiens, HCT-116
[9] = test system: KM12; experiment: NCI60 five-dose screen; conditions: Homo sapiens, KM12
[10] = test system: SW-620; experiment: NCI60 five-dose screen; conditions: Homo sapiens, SW-620
[11] = test system: SF-295; experiment: NCI60 five-dose screen; conditions: Homo sapiens, SF-295
[12] = test system: LOX IMVI; experiment: NCI60 five-dose screen; conditions: Homo sapiens
[13] = test system: UACC-257; experiment: NCI60 five-dose screen; conditions: Homo sapiens, UACC-257
[14] = test system: UACC-62; experiment: NCI60 five-dose screen; conditions: Homo sapiens, UACC-62
[15] = test system: OVCAR-3; experiment: NCI60 five-dose screen; conditions: Homo sapiens, OVCAR-3
[16] = test system: SK-OV-3; experiment: NCI60 five-dose screen; conditions: Homo sapiens, SK-OV-3
[17] = test system: A498; experiment: NCI60 five-dose screen; conditions: Homo sapiens, A498
[18] = test system: DU-145; experiment: NCI60 five-dose screen; conditions: Homo sapiens, DU-145
[19] = test system: MDA-MB-468; experiment: NCI60 five-dose screen; conditions: Homo sapiens, MDA-MB-468
[20] = test system: Prostate Cancer panel; experiment: NCI60 five-dose screen, panel mean; conditions: Homo sapiens
[21] = test system: CCRF-CEM; experiment: NCI60 one-dose screen; conditions: Homo sapiens, read-out: Growth percent
[22] = test system: RPMI-8226; experiment: NCI60 one-dose screen; conditions: Homo sapiens, RPMI-8226, read-out: Growth percent
[23] = test system: SR; experiment: NCI60 one-dose screen; conditions: Homo sapiens, read-out: Growth percent
[24] = test system: HCC-2998; experiment: NCI60 one-dose screen; conditions: Homo sapiens, HCC 2998, read-out: Growth percent
[25] = test system: HCT-116; experiment: NCI60 one-dose screen; conditions: Homo sapiens, HCT-116, read-out: Growth percent
[26] = test system: HCT-15; experiment: NCI60 one-dose screen; conditions: Homo sapiens, HCT-15, read-out: Growth percent
[27] = test system: HT29; experiment: NCI60 one-dose screen; conditions: Homo sapiens, HT-29, read-out: Growth percent
[28] = test system: SW-620; experiment: NCI60 one-dose screen; conditions: Homo sapiens, SW-620, read-out: Growth percent
[29] = test system: SF-268; experiment: NCI60 one-dose screen; conditions: Homo sapiens, SF-268, read-out: Growth percent
[30] = test system: SF-539; experiment: NCI60 one-dose screen; conditions: Homo sapiens, SF-539, read-out: Growth percent
[31] = test system: SNB-75; experiment: NCI60 one-dose screen; conditions: Homo sapiens, SNB-75, read-out: Growth percent
[32] = test system: MALME-3M; experiment: NCI60 one-dose screen; conditions: Homo sapiens, Malme-3M, read-out: Growth percent
[33] = test system: M14; experiment: NCI60 one-dose screen; conditions: Homo sapiens, M14, read-out: Growth percent
[34] = test system: SK-MEL-28; experiment: NCI60 one-dose screen; conditions: Homo sapiens, SK-MEL-28, read-out: Growth percent
[35] = test system: SK-MEL-5; experiment: NCI60 one-dose screen; conditions: Homo sapiens, SK-MEL-5, read-out: Growth percent
[36] = test system: IGROV1; experiment: NCI60 one-dose screen; conditions: Homo sapiens, IGROV-1, read-out: Growth percent
[37] = test system: OVCAR-4; experiment: NCI60 one-dose screen; conditions: Homo sapiens, OVCAR-4, read-out: Growth percent
[38] = test system: OVCAR-5; experiment: NCI60 one-dose screen; conditions: Homo sapiens, OVCAR-5, read-out: Growth percent
[39] = test system: NCI/ADR-RES; experiment: NCI60 one-dose screen; conditions: Homo sapiens, read-out: Growth percent
[40] = test system: A498; experiment: NCI60 one-dose screen; conditions: Homo sapiens, A498, read-out: Growth percent
[41] = test system: UO-31; experiment: NCI60 one-dose screen; conditions: Homo sapiens, UO-31, read-out: Growth percent
[42] = test system: MDA-MB-231/ATCC; experiment: NCI60 one-dose screen; conditions: Homo sapiens, MDA-MB-231, read-out: Growth percent
[43] = test system: HS 578T; experiment: NCI60 one-dose screen; conditions: Homo sapiens, Hs-578T, read-out: Growth percent
[44] = test system: T-47D; experiment: NCI60 one-dose screen; conditions: Homo sapiens, T47D, read-out: Growth percent
[45] = test system: 60 human tumor cell lines (NCI60); experiment: NCI60 one-dose screen, overall mean; conditions: for activity at 10 µM: Homo sapiens, 60 cell, read-out: Mean growth percent

## CC[C@]12C=CCN3CC[C@@]4(c5ccc(OC)cc5N(C)[C@H]4[C@@](O)(C(=O)OC)[C@@H]1OC(=O)CCCC[P+](c1ccc(OC)cc1)(c1ccc(OC)cc1)c1ccc(OC)cc1)[C@@H]32 [10b]
[1]
  GI50: 675 nM
[2]
  GI50: 2420 nM
[3]
  GI50: 1190 nM
[4]
  GI50: 2790 nM
[5]
  GI50: 1150 nM
[6]
  GI50: 341 nM
[7]
  GI50: 214 nM
[8]
  GI50: 1300 nM
[9]
  GI50: 675 nM
[10]
  GI50: 1060 nM
[11]
  GI50: 1970 nM
[12]
  GI50: 1110 nM
[13]
  GI50: 792 nM
[14]
  GI50: 963 nM
[15]
  GI50: 634 nM
[16]
  GI50: 1400 nM
[17]
  GI50: 2930 nM
[18]
  GI50: 16000 nM
[19]
  GI50: 264 nM
[20]; read-out: GI50 Mean
  GI50: 8280 nM
[21]
  activity at 10 µM: -59.1%
[22]
  activity at 10 µM: -68.8%
[23]
  activity at 10 µM: 23.2%
[24]
  activity at 10 µM: -88.4%
[25]
  activity at 10 µM: -94.9%
[26]
  activity at 10 µM: -5.69%
[27]
  activity at 10 µM: -63.1%
[28]
  activity at 10 µM: -88.7%
[29]
  activity at 10 µM: -38.1%
[30]
  activity at 10 µM: -97.5%
[31]
  activity at 10 µM: -95.4%
[32]
  activity at 10 µM: -97.2%
[33]
  activity at 10 µM: -89.8%
[34]
  activity at 10 µM: -96.8%
[35]
  activity at 10 µM: -97%
[36]
  activity at 10 µM: -92%
[37]
  activity at 10 µM: -37.7%
[38]
  activity at 10 µM: -98.6%
[39]
  activity at 10 µM: 84.3%
[40]
  activity at 10 µM: -54.7%
[41]
  activity at 10 µM: 15.5%
[42]
  activity at 10 µM: -97.4%
[43]
  activity at 10 µM: -67.5%
[44]
  activity at 10 µM: -46.6%
[45]
  activity at 10 µM: -70.4%
[45]; one-dose, 10 µM, average over cell lines
  average reduction / average cell death: more than 70%

## CC[C@]12C=CCN3CC[C@@]4(c5ccc(OC)cc5N(C)[C@H]4[C@@](O)(C(=O)OC)[C@@H]1OC(=O)CCC[P+](c1ccc(F)cc1)(c1ccc(F)cc1)c1ccc(F)cc1)[C@@H]32 [9c]
[1]
  GI50: 9830 nM
[2]
  GI50: 20500 nM
[3]
  GI50: 15800 nM
[4]
  GI50: > 48500 nM
[5]
  GI50: 17000 nM
[6]
  GI50: 3880 nM
[7]
  GI50: 4980 nM
[8]
  GI50: 14800 nM
[9]
  GI50: 8960 nM
[10]
  GI50: 18300 nM
[11]
  GI50: > 48500 nM
[12]
  GI50: 16600 nM
[13]
  GI50: 4670 nM
[14]
  GI50: 6050 nM
[15]
  GI50: 6470 nM
[16]
  GI50: 15800 nM
[17]
  GI50: > 48500 nM
[18]
  GI50: 23700 nM
[19]
  GI50: 1500 nM
[20]; read-out: Mean GI50
  GI50: 18200 nM
[21]
  activity at 10 µM: 20%
[22]
  activity at 10 µM: 24.4%
[23]
  activity at 10 µM: 42.6%
[24]
  activity at 10 µM: 22.4%
[25]
  activity at 10 µM: 32.2%
[26]
  activity at 10 µM: 99.6%
[27]
  activity at 10 µM: 15.7%
[28]
  activity at 10 µM: 45.3%
[29]
  activity at 10 µM: 42.3%
[30]
  activity at 10 µM: 24.2%
[31]
  activity at 10 µM: 39.9%
[32]
  activity at 10 µM: -32.6%
[33]
  activity at 10 µM: 21.4%
[34]
  activity at 10 µM: -24.1%
[35]
  activity at 10 µM: -38.3%
[36]
  activity at 10 µM: -15%
[37]
  activity at 10 µM: 48.6%
[38]
  activity at 10 µM: 67%
[39]
  activity at 10 µM: 104%
[40]
  activity at 10 µM: 101%
[41]
  activity at 10 µM: 81.5%
[42]
  activity at 10 µM: 22%
[43]
  activity at 10 µM: 19.1%
[44]
  activity at 10 µM: 10.4%
[45]
  activity at 10 µM: 26.3%

## CC[C@]12C=CCN3CC[C@@]4(c5ccc(OC)cc5N(C)[C@H]4[C@@](O)(C(=O)OC)[C@@H]1OC(=O)CCC[P+](c1ccccc1)(c1ccccc1)c1ccccc1OC)[C@@H]32 [9f]
[1]
  GI50: 125 nM
[2]
  GI50: 2160 nM
[3]
  GI50: 413 nM
[4]
  GI50: 2230 nM
[5]
  GI50: 774 nM
[6]
  GI50: 339 nM
[7]
  GI50: 179 nM
[8]
  GI50: 383 nM
[9]
  GI50: 331 nM
[10]
  GI50: 637 nM
[11]
  GI50: 1830 nM
[12]
  GI50: 429 nM
[13]
  GI50: 406 nM
[14]
  GI50: 286 nM
[15]
  GI50: 297 nM
[16]
  GI50: 411 nM
[17]
  GI50: 2650 nM
[18]
  GI50: 418 nM
[19]
  GI50: 129 nM
[20]; read-out: Mean GI50
  GI50: 340 nM
[21]
  activity at 10 µM: 0.92%
[22]
  activity at 10 µM: -38%
[23]
  activity at 10 µM: -7.49%
[24]
  activity at 10 µM: -93.1%
[25]
  activity at 10 µM: -51%
[26]
  activity at 10 µM: 30.7%
[27]
  activity at 10 µM: -57.8%
[28]
  activity at 10 µM: -48.7%
[29]
  activity at 10 µM: -76.1%
[30]
  activity at 10 µM: -93.8%
[31]
  activity at 10 µM: -79.5%
[32]
  activity at 10 µM: -96.7%
[33]
  activity at 10 µM: -82.9%
[34]
  activity at 10 µM: -63.3%
[35]
  activity at 10 µM: -98.4%
[36]
  activity at 10 µM: -43.2%
[37]
  activity at 10 µM: -11.1%
[38]
  activity at 10 µM: 10.6%
[39]
  activity at 10 µM: 75.9%
[40]
  activity at 10 µM: -10.4%
[41]
  activity at 10 µM: 44%
[42]
  activity at 10 µM: -94.5%
[43]
  activity at 10 µM: -47.4%
[44]
  activity at 10 µM: -25%
[45]
  activity at 10 µM: -45.4%
